Each structure is given as a SMILES string.

Assay [1] has as its target T1, FGFR3 (Homo sapiens, UniProt P22607).
T1 construct: made in house; host or cells: Escherichia coli
As to the kind of experiment: HTRF enzyme activity test, FGFR3. Type of assay: biochemical.
Experimental: In the present disclosure, the homogeneous time-resolved fluorescence (HTRF) technology was used to evaluate an inhibitory effect of a compound on the four subtypes FGFR1, FGFR2, FGFR3, and FGFR4. FGFR1, FGFR2, FGFR3, and FGFR4 prokaryotic expression vectors were first constructed; and when the prokaryotic expression vectors were identified as correct, FGFR proteins were expressed and purified on a large scale in an Escherichia coli (E. coli) system, and protein concentrations were determined. Resulting proteins were stored in aliquots. Before an enzyme activity test was started, cisbio HTRF KinEA (62TK0PEB) was used to pre-dilute each component required in an enzyme activity system with an enzyme activity buffer to a required working concentration. A 384-well plate (66PL384025) was prepared, 5 μL of a protein solution, 1 μL of a compound, and 2 μL of a substrate were added to each well, and 2 μL of ATP was finally added to initiate a reaction. Three parallel experiments were set for each concentration. […] The 384-well plate was sealed and incubated at room temperature for about 1 h. […] Finally, the TECAN infinite M1000PRO multi-function microplate reader was used to detect a fluorescence signal, an inhibition rate was calculated, and an IC50 value was fitted with GraphPad Prism 7.0.

Assay [2] deals with A549. Description: cells. Conditions: Homo sapiens, A549, 96 h, read-out: Anti-proliferation IC50 A549.
The subject of assay [3] is Huh-7. Description: MTT cell proliferation assay, Huh-7. Conditions: tumor cells with normal FGFR expression (Huh-7, A549 of Table 2). Type of assay: cell-based. For orientation: Tetrazolium assays rely on reduction of a dye to a coloured formazan, in cell work by metabolically active cells.

T1 sequence (P22607 23-806): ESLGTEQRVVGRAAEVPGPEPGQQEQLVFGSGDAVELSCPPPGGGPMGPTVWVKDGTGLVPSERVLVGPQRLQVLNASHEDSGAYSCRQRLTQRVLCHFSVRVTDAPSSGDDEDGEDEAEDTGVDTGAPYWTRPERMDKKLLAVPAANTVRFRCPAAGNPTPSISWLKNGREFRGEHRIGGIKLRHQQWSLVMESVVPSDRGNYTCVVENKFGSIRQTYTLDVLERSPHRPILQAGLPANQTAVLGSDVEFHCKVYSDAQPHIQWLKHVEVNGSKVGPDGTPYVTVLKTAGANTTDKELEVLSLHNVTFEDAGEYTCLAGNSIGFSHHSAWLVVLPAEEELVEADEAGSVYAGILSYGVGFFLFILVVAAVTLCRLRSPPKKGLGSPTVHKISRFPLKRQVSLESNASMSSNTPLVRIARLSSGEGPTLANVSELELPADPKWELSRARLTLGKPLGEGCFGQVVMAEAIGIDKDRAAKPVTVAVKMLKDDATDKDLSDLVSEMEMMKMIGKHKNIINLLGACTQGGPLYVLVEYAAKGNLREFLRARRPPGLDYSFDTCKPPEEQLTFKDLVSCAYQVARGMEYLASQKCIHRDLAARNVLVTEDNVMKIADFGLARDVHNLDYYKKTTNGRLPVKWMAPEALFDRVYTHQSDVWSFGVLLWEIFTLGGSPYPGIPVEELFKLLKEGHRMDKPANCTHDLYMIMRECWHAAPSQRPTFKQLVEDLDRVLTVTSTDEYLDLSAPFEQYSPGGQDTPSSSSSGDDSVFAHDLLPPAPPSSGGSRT

Molecule `C=CC(=O)N1CCN(CCCCCn2nc(-c3cccc(OCc4ccccc4)c3)c3c(N)ncnc32)CC1` [Compound 26] came in with an IC50 in assay [1] of more than 5000 nM.
In the case of `COc1cc(OC)cc(-c2nn(CCCCCN3CCN(C(=O)/C=C/C(F)(F)F)CC3)c3ncnc(N)c23)c1` [Compound 36], the IC50 in assay [2] was more than 10 µM. In addition, the “inhibitory effect on tumor cells with normal FGFR expression (in words)” value in assay [3] was “no obvious inhibitory effect”.

Source of the values: US20230159537A1, “COMPOUND, PREPARATION METHOD THEREOF, AND USE THEREOF IN PREPARATION OF ANTI-CANCER DRUG” (TIANJIN JIKUN MEDICAL TECHNOLOGY CO., LTD., priority 2020, published 2023).
